Columns and labels:
[1] = target: T1, Calcitonin receptor (Homo sapiens, UniProt P30988); assay type: cell membranes, Membrane; details: t47d; further: in other assays of this panel Not Active means under 50% inhibition at 10 µM
T1 sequence (P30988 whole entry): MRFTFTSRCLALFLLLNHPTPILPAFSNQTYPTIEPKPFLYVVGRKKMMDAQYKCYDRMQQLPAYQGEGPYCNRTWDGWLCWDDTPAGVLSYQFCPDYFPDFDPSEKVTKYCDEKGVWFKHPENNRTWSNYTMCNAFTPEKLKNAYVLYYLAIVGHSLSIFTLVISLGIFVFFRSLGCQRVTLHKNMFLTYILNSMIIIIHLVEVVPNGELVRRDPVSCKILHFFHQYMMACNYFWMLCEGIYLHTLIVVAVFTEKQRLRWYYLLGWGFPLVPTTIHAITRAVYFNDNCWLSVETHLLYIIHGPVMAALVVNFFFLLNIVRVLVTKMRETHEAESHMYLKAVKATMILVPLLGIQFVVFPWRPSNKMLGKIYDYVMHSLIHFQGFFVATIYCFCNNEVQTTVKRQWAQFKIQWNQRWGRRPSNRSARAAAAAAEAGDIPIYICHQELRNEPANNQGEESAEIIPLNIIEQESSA

[2] = DRUGMATRIX: Serotonin (5-Hydroxytryptamine) 5-HT3 radioligand binding (ligand: [3H] GR-65630); assay type: cell membranes, Membrane; details: hek293; Not Active = under 50% inhibition at 10 µM
[3] = target: T2, Substance-K receptor (Homo sapiens, UniProt P21452); assay type: cell membranes, CHO, Membrane; further: in other assays of this panel Not Active means under 50% inhibition at 10 µM
T2 sequence (P21452 whole entry): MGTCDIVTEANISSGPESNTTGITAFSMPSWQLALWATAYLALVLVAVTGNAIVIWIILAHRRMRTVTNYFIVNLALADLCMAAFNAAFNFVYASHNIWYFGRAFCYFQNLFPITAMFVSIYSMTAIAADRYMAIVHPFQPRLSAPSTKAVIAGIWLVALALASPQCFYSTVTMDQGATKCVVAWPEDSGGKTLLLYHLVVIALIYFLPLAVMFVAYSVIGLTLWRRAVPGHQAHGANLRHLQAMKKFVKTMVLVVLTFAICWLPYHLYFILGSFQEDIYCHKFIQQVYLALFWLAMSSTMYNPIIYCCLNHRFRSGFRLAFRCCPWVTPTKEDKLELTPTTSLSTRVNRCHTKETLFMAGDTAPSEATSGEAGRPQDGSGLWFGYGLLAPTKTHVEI

[4] = DRUGMATRIX: GABAA, Flunitrazepam, Central radioligand binding (ligand: [3H] Flunitrazepam); assay type: cell membranes, Rattus norvegicus, Wistar, Brain, Membrane; details: Not Active = under 50% inhibition at 10 µM
[5] = DRUGMATRIX: Glutamate, NMDA, Agonism radioligand binding (ligand: [3H] CGP-39653); assay type: cell membranes, Rattus norvegicus, Wistar, Cerebral cortex, Membrane; details: Not Active = under 50% inhibition at 10 µM
[6] = target: Histamine H2 receptor (Homo sapiens, UniProt P25021); assay type: cell membranes, CHO-K1, Membrane; details: cho-k1; further: in other assays of this panel Not Active means under 50% inhibition at 10 µM
[7] = target: Melanocortin receptor 4 (Homo sapiens, UniProt P32245); assay type: cell membranes, Membrane; details: hek293; further: in other assays of this panel Not Active means under 50% inhibition at 10 µM
Melanocortin receptor 4, sequence (P32245 whole entry): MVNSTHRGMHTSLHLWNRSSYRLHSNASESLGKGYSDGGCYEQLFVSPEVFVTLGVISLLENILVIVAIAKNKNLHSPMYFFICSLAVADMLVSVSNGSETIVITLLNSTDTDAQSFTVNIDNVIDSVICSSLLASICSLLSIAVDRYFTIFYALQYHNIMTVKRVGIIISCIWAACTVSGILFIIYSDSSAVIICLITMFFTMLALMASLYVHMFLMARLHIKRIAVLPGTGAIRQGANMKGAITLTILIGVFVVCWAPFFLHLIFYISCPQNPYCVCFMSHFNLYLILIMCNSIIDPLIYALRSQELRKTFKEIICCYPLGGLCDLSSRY

Histamine H2 receptor, sequence (P25021 whole entry): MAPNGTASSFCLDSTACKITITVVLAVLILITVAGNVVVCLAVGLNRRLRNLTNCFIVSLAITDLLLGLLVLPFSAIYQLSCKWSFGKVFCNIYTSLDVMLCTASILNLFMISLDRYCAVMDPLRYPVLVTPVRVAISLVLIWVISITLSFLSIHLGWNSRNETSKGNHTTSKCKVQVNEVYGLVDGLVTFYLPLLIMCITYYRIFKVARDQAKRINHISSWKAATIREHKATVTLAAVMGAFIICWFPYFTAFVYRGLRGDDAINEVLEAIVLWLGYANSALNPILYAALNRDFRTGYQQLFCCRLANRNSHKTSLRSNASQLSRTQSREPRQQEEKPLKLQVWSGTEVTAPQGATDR

Compound | IC50 [1] | Ki [1] | IC50 [2] | Ki [2] | IC50 ([3]; cho) | Ki ([3]; cho) | IC50 [4] | Ki [4] | IC50 [5] | Ki [5] | IC50 [6] | Ki [6] | IC50 [7] | Ki [7] | IC50 ([3]; read-out: IC50) | Ki ([3]; read-out: Ki)
CHROMIC CHLORIDE | Not Active | Not Active | Not Active | Not Active | Not Active | Not Active | Not Active | Not Active | Not Active | Not Active | Not Active | Not Active | Not Active | Not Active | – | –
Cl.NC[C@H]1CC[C@H](C(=O)Oc2ccc(CCC(=O)O)cc2)CC1 [CETRAXATE HYDROCHLORIDE] | Not Active | – | Not Active | Not Active | Not Active | – | Not Active | Not Active | Not Active | Not Active | Not Active | – | Not Active | – | – | –
O=c1[nH]c2ccccc2c2ccccc12 | Not Active | – | Not Active | Not Active | Not Active | – | Not Active | Not Active | Not Active | Not Active | Not Active | – | Not Active | – | – | –
C[C@H](C(=O)O)c1ccc2oc(-c3ccc(F)cc3)nc2c1 [FLUNOXAPROFEN] | Not Active | – | Not Active | Not Active | Not Active | – | Not Active | Not Active | Not Active | Not Active | Not Active | – | Not Active | – | – | –
O=C(O)CNCP(=O)(O)O [GLYPHOSATE] | Not Active | – | Not Active | Not Active | Not Active | – | Not Active | Not Active | Not Active | Not Active | Not Active | – | Not Active | – | – | –
C[N+](C)(C)CCOC(N)=O.[Cl-] [CARBACHOL] | Not Active | – | Not Active | Not Active | Not Active | – | Not Active | Not Active | Not Active | Not Active | Not Active | – | Not Active | – | – | –
O=C(O)CCc1nc(-c2ccccc2)c(-c2ccccc2)o1 [OXAPROZIN] | Not Active | – | Not Active | Not Active | Not Active | – | Not Active | Not Active | Not Active | Not Active | Not Active | – | Not Active | – | – | –
CC(=O)[C@]1(O)Cc2c(O)c3c(c(O)c2[C@@H](O[C@H]2C[C@H](N)[C@H](O)[C@H](C)O2)C1)C(=O)c1ccccc1C3=O [IDARUBICIN] | Not Active | – | Not Active | Not Active | Not Active | – | Not Active | Not Active | Not Active | Not Active | Not Active | – | Not Active | – | – | –
NS(=O)(=O)c1cc(C(=O)O)c(NCc2ccco2)cc1Cl [FUROSEMIDE] | Not Active | – | Not Active | Not Active | Not Active | – | Not Active | Not Active | Not Active | Not Active | Not Active | – | Not Active | – | – | –
O=C1CN(/N=C/c2ccc([N+](=O)[O-])o2)C(=O)N1 [NITROFURANTOIN] | Not Active | – | Not Active | Not Active | Not Active | – | Not Active | Not Active | Not Active | Not Active | Not Active | – | Not Active | – | – | –
CARBOXYMETHYLCELLULOSE | Not Active | Not Active | Not Active | Not Active | Not Active | Not Active | Not Active | Not Active | Not Active | Not Active | Not Active | Not Active | Not Active | Not Active | – | –
c1ccc2sc(SSc3nc4ccccc4s3)nc2c1 [BENZOTHIAZYL DISULFIDE] | Not Active | – | Not Active | Not Active | Not Active | – | Not Active | Not Active | Not Active | Not Active | Not Active | – | Not Active | – | – | –
CC12CCC(CC1)C(C)(C)O2 [EUCALYPTOL] | Not Active | – | Not Active | Not Active | Not Active | – | Not Active | Not Active | Not Active | Not Active | Not Active | – | Not Active | – | – | –
CC(=O)Nc1ccc2c(c1)Cc1ccccc1-2 [2-ACETYLAMINOFLUORENE] | Not Active | – | Not Active | Not Active | Not Active | – | Not Active | Not Active | Not Active | Not Active | Not Active | – | Not Active | – | – | –
CCN1C[C@]2(COC)[C@H](O)C[C@H](OC)[C@@]34[C@@H]5C[C@@]6(O)[C@H](OC(=O)c7ccccc7)[C@@H]5[C@@](OC(C)=O)([C@@H]([C@H](OC)[C@H]23)[C@@H]14)[C@@H](O)[C@@H]6OC [ACONITINE] | Not Active | – | Not Active | Not Active | Not Active | – | Not Active | Not Active | Not Active | Not Active | Not Active | – | Not Active | – | – | –
COc1ccccc1OCCNCC(O)COc1cccc2[nH]c3ccccc3c12 (stereo not drawn) [CARVEDILOL] | Not Active | – | Not Active | Not Active | Not Active | – | Not Active | Not Active | Not Active | Not Active | Not Active | – | Not Active | – | – | –
CC(N)Cc1c[nH]c2ccc(OCc3cccs3)cc12 (stereo not drawn) [BW-723C86] | Not Active | – | Not Active | Not Active | Not Active | – | Not Active | Not Active | Not Active | Not Active | Not Active | – | Not Active | – | – | –
C=C(Cl)Cl [1,1-DICHLOROETHENE] | Not Active | – | Not Active | Not Active | Not Active | – | Not Active | Not Active | Not Active | Not Active | Not Active | – | Not Active | – | – | –
Nc1ccc(Cc2ccc(N)cc2)cc1 | Not Active | – | Not Active | Not Active | Not Active | – | Not Active | Not Active | Not Active | Not Active | Not Active | – | Not Active | – | – | –
Nc1nc(N)c2nc(CNc3ccc(C(=O)N[C@@H](CCC(=O)O)C(=O)O)cc3)cnc2n1 [AMINOPTERIN] | Not Active | – | Not Active | Not Active | Not Active | – | Not Active | Not Active | Not Active | Not Active | Not Active | – | Not Active | – | – | –
CCN(CCO)CCCC(C)Nc1ccnc2cc(Cl)ccc12 (stereo not drawn) [HYDROXYCHLOROQUINE] | Not Active | – | Not Active | Not Active | Not Active | – | Not Active | Not Active | Not Active | Not Active | Not Active | – | Not Active | – | – | –
COPPER(II) OXIDE | Not Active | Not Active | Not Active | Not Active | Not Active | Not Active | Not Active | Not Active | Not Active | Not Active | Not Active | Not Active | Not Active | Not Active | – | –
CN(CCOc1ccc(C[C@H](Nc2ccccc2C(=O)c2ccccc2)C(=O)O)cc1)c1ccccn1 | Not Active | – | Not Active | Not Active | – | – | Not Active | Not Active | Not Active | Not Active | Not Active | – | Not Active | – | 14.5 µM | 4.84 µM
COc1cc([C@@H]2c3cc4c(cc3[C@H](O)[C@H]3COC(=O)[C@H]23)OCO4)cc(OC)c1OC [PODOFILOX] | Not Active | – | Not Active | Not Active | Not Active | – | Not Active | Not Active | Not Active | Not Active | Not Active | – | Not Active | – | – | –
